According to patent publication EP0199247A2, “Cytostatic active medicine containing glycidyl amines” (priority 1985, dated 1986):

Tested on: Tumorart P 388 (Leukämie)
Assay: P 388 leukemia survival test in mice (NCI protocol 1200)
Format: in vivo, Mäusen
Conditions: i.p., 9-day treatment; for Verlängerungsrate T/C: P 388 i.p. 10^6 Zellen/Maus, untreated mean survival 10 days; for Zahl der Tiere aus jeweils einer Gruppe von 6 die 30 Tage überlebten: value in brackets, group of 6
Source text: Die nachfolgenden Versuche wurden durchgeführt nach Tcstvorschriften des National Canccr Institute Bethesda, Maryland 200014, veröffentlicht in "Cancer Chemotherany Renorts" Part. 3, Sept. 1972, Vol. 3, Nr. 2. Als Wirksubstanz wurde Triglycidylamin sowie 3-Chlorpropyl-diglycidylamin des vorstehenden Beisniels 4 verwendet. Die Substanz wurde als wäßrige 1 %ige Injektionslösung unmittelbar vor der Applikation frisch hergestellt.
Bei Mäusen wurde gemäß Protokoll 1200 (S. 91 c) die Tumorart P 388 (Leukämie) i.p. mit 10^6 Zellen/Maus gesetzt. Die unbehandelten Tiere hatten eine mittlere Überlebensdauer von 10 Tagen.
Mit den behandelten Testtieren, die einer 9-tägigen i.p. Behandlung mit der in Tabelle 1 angesehenen Dosis unterworfen wurden, wurde eine signifikante Verlängerung der Lebensdauer gegenüber der mittleren Überlebensdauer der nicht mit dem Wirkstoff behandelten Tiere erzielt. Die Verlängerunzstate T/C in Abhängigkeit von der Dosierung des Wirkstoffes ist in der Tabelle 1 zusammengestellt. Die Werte in Klammern bedeuten die Zahl der Tiere aus jeweils einer Gruppe von 6 die 30 Tage üherlebten.

Structure (SMILES)	Verlängerungsrate T/C (Dosis 0,48 mg/kg) [%]	Verlängerungsrate T/C (Dosis 0,97 mg/kg) [%]	Verlängerungsrate T/C (Dosis 1,87 mg/kg) [%]	Verlängerungsrate T/C (Dosis 3,75 mg/kg) [%]	Zahl der Tiere aus jeweils einer Gruppe von 6 die 30 Tage überlebten (Dosis 3,75 mg/kg)	Verlängerungsrate T/C (Dosis 7,50 mg/kg) [%]	Zahl der Tiere aus jeweils einer Gruppe von 6 die 30 Tage überlebten (Dosis 7,50 mg/kg)
C1OC1CN(CC1CO1)CC1CO1 (stereo not drawn) [Triglycidylamin]	148	174	252	303	6	–	–
ClCCCN(CC1CO1)CC1CO1 (stereo not drawn) [3-Chlorpropyl-diglycidylamin]	–	–	179	181	–	303	3
